# Several values for one entry are separate records, joined by “and”; a condition that tells them apart may be missing. Identical values can stand only once.
# How the values were obtained:
# Uninfected H9 cells = assay: Growth inhibition of uninfected H9 cells; assay type: cell-based; conditions: Homo sapiens, 750 μM foscarnet
# HTLV-III = assay: Replication of HTLV-III in H9 cells (RT activity readout); assay type: cell-based; conditions: Human immunodeficiency virus 1, 144 h
# Method: HTLV-III Infection of H9 Cells. H9 cells constitute a human cell line that can be chronically infected with HTLV-III virus. (Science 1984; 224: 497-500). H9 cells were treated with polybrene (2 μg/ml) for 30 min. at 37° C., washed free of polybrene and infected with 2×10^8 HTLV-III virus particles per 4×10^5 H9 cells. […] The cultures were analyzed for HTLV-III reverse transcriptase activity as described above.
# The effect of foscarnet on the replication of HTLV-III in H9 cells was determined as a function of both foscarnet concentration and time of incubation.
# variety of cell types = assay: Cell growth inhibition in a variety of cell types; assay type: cell-based
# [1] = Steady-state serum level in patients on constant intravenous infusion; conditions: constant intravenous infusion for 1-4 weeks, most cases
# Method: These patients were given foscarnet intravenously by constant infusion for 1-4 weeks and, at steady state, serum levels of foscarnet reached in most cases were 300-450 μM (100-150 μg/ml).
# cytomegalovirus (CMV) = assay: Clinical effect of infusion in patients with severe herpesvirus infections; assay type: in vivo; conditions: intravenous constant infusion 1-4 weeks, severe herpesvirus infections mainly CMV
# [2] = tested on: labial and genital herpes; assay: Clinical evaluation of topical formulation against labial and genital herpes; assay type: in vivo
# [3] = target: HTLV-III reverse transcriptase (Human immunodeficiency virus type 1 group M subtype B, UniProt P03366); assay: Purified HTLV-III reverse transcriptase assay; assay type: biochemical
# Method: Source of HTLV-III Reverse Transcriptase and Assay Conditions. HTLV-III reverse transcriptase used in these studies was purified by sequential chromatography on DEAE, cellulose, phosphocellulose and hydroxyapatite. The purified anzyme was stored in 50 mM Tris-HC1 (pH 7.5), 1 mM dithiothreitol (DTT), 0.01% Triton X-100 and 20% glycerol. Reverse transcriptase assays were carried out in a reaction mixture (50 μl)containing 50 mM Tris-HC1 (pH 7.5), 5 mM DTT, 100mM potassium chloride, 0.01% Triton X-100 or NP40, 10 μg/ml (dT)15.(A)n as template primer and/^3H/deoxythymidine triphosphate (/^3H/-dTTP). The reaction mixture was incubated for 1 hour at 37°, and the reaction was stopped by the addition of 50 μg of yeast tRNA and 2 ml of 10% solution of trichloroacetic acid (TCA) containing 1 mM sodium pyrophosphate. The samples were filtered on millipore filters (0.45 μm), washed first with 5% TCA solution (5 times) and then with 2 ml of 70% ethanol. The filters were dried under a heat lamp, scintillation fluid was added and the radioactivity counted in a β-scintillation counter.
# The effect of foscarnet on purified HTLV-III reverse transcriptase (RT) was assayed as a function of drug concentration.
compound,measurement,setting,value
"O=C(O)P(=O)(O)O [foscarnet, trisodium phosphonoformate hexahydrate]",inhibition at 750 µM,Uninfected H9 cells,< 50%
same,inhibition at 50 µM,"HTLV-III; 50 μM foscarnet, 6 days of incubation",50%
same,inhibition at 300 µM,"HTLV-III; 300 μM foscarnet, six days of incubation",> 95%
same,cell growth after removal of the drug,variety of cell types; stationary cells treated with 10 mM foscarnet,normal cell growth can be seen
same,reversibility of cell growth inhibition,variety of cell types; variety of cell types,reversible
same,IC50,"variety of cell types; variety of cell types, read-out: concentration inhibiting cell growth by 50%",~1000 µM
same,steady state serum level,[1],300-450 μM and 100-150 μg/ml
same,clinical effect in treated patients,cytomegalovirus (CMV),clear indications of a beneficial effect
same,clinical activity and tolerability,[2],active and well tolerated
same,IC50,[3],0.1 to 2 µM
same,mode of inhibition of reverse transcriptase,[3]; with respect to substrate and template,noncompetitive with respect to substrate and uncompetitive with respect to template
